Structures can show the parent of a compound that is named as a salt.
What was measured:
[1] = system: Human pancreatic cancer cells (Miapaca2); test: In vivo drug efficacy in the Miapaca2 nude mouse xenograft tumor model; parameters: species or system Balb/c nude mice; conditions: Miapaca-2 xenograft, AMG-510 5 mg/kg once a day, compound 14 hydrochloride 50 mg/kg twice a day, intragastric
Experimental: Human pancreatic cancer cells (Miapaca2) were cultured in vitro as a monolayer on an adherent surface, and the culture conditions were DMEM medium plus 10% fetal bovine serum, cultured in a 37° C., 5% CO2 incubator. The cells were treated with trypsin-EDTA for routine digestion and passaged two to three times a week. When the cell saturation was 80% to 90% and the number reached the requirements, the cells were collected, counted, and inoculated.
Balb/c nude mice, female, 6 to 7 weeks old, were purchased from Shanghai SIPPR-BK Lab Animal Co., Ltd.
0.2 mL (5×10^6) Miapaca-2 cells (plus Matrigel, volume ratio of 1:1) were subcutaneously inoculated on the right back of each mouse, and the administration in groups began when the average tumor volume reached 118 mm^3.
The tumor diameter was measured twice a week with a vernier caliper, and the tumor volume was measured in cubic millimeters, calculated by the following formula: V=0.5a×b^2, wherein a and b are the long and short diameters of the tumor, respectively. The tumor inhibitory efficacy of the test compound was evaluated by using TGI (%). TGI (%) reflects the rate of tumor growth inhibition. […]

[2] = biological target: binding of KRAS(G12C) to SOS1 (Homo sapiens (Human), UniProt Q07889); test: KRAS(G12C) and SOS1 binding assay (HTRF); conditions: 25° C., 60 minutes
From the text: The small molecular compound binds to the catalytic site of SOS1, thus inhibiting the binding of SOS1 to KRAS (G12C). When the binding of fluorescently labeled SOS1 protein to fluorescently labeled KRAS (G12C) protein is inhibited, the emitted fluorescence changes. The ability of small molecules to prevent the binding of SOS1 to KRAS (G12C) can be tested by detecting changes in fluorescence. A homogeneous time-resolved fluorescence (HTRF) binding assay was used to detect the ability of the compounds of the present disclosure to inhibit the binding of SOS1 to KRAS (G12C).
KRAS (G12C) protein was expressed and purified by Wuhan AtaGenix Biotechnology Co., Ltd., SOS1 exchange domin (564-1049) protein (Human recombinant) was purchased from Cytoskeleton, Mab Anti 6HIS-XL665 and Mab Anti GST-Eu cryptate were purchased from Cisbio. Multimode microplate reader Nivo5 was purchased from PerkinElmer.
1× buffer preparation (ready-to-use): Hepes: 5 mM; NaCl: 150 mM; EDTA: 10 mM; Igepal: 0.0025%; KF: 100 mM; DTT: 1 mM; BSA: […];
The test compounds were 5-fold diluted with DMSO using a multi-channel pipette to the 8th concentration, i.e., diluted from 1 mM to 0.064 μM.
The test compound was diluted by gradient with 1× buffer to a working solution with 2% DMSO. 5 μL/well of the working solution was added to corresponding wells, and the corresponding concentration gradient was 20 μM to […]. Duplicate experiment was set. The working solution was centrifuged at 1000 rpm for 1 minute.
A mixed working solution of KRAS(G12C) (200 nM) and Mab Anti GST-Eu cryptate (1 ng/μL) was prepared with 1× buffer, and the mixed working solution was incubated at 25° C. for 5 minutes, and 2.5 μL/well of the mixed working solution was added to the corresponding wells.
A mixed working solution of SOS1 (80 nM) and Mab Anti 6HIS-XL665 ([…]) was prepared with 1× buffer, and 2.5 μL/well of the mixed working solution was added to the corresponding wells. 2.5 μL of Mab Anti 6HIS-XL665 ([…]) diluent was added to blank wells. At this time, the final concentration gradient of the compound was diluted from 10 μM to 0.64 nM, KRAS(G12C) ([…]), MAb Anti GST-Eu cryptate (0.25 ng/μL), SOS1 (20 nM), Mab Anti 6HIS-XL665 (2 g/μL), the reaction system was placed at 25° C. for 60 minutes. After the reaction was completed, the multimode microplate reader was used to read HTRF.
Using the equation (Sample−Min)/(Max−Min)×100% to convert the raw data into inhibition rate, the IC50 value might be obtained by curve fitting with four parameters (obtained by “log (inhibitor) vs. response—Variable slope” mode in GraphPad Prism).

[3] = Pharmacokinetic evaluation in CD-1 mice (IV and oral); assay type: in vivo; conditions: mouse, plasma
Experimental: CD-1 mice (male, 7 to 9 weeks old, Shanghai SLAC)
The pharmacokinetic characteristics of the compound in rodents after intravenous injection and oral administration were tested according to the standard protocol. In the experiment, the candidate compound was formulated into clear solutions, and a single intravenous injection and oral administration were given to mice. The vehicle for intravenous injection and oral administration was a mixed vehicle composed of 10% dimethyl sulfoxide and 90% hydroxypropyl β-cyclodextrin with a content of 10%. In this project, four female CD-1 mice were used, and two mice were administered intravenously at a dose of 1 mg/kg. Plasma samples were collected at 0.033, 0.083, 0.25, 0.5, 1, 2, 4, 8, and 12 hours after administration. The other two mice were administered orally by gavage at a dose of 2 mg/kg. Plasma samples were collected at 0.083, 0.25, 0.5, 1, 2, 4, 8, and 12 hours after administration, […] at 4° C. for 10 minutes at 3,200×g, and the supernatants were separated from the plasma samples. The protein was precipitated by adding 20 times the volume of methanol solution containing internal standard, […] at 12000×g for 15 minutes, centrifuged at 4° C. 50 μL of the supernatant was transferred to a 96-well plate and centrifuged for a second time to take the supernatant for injection. The plasma concentration was quantitatively analyzed by LC-MS/MS analysis method, and the pharmacokinetic parameters were calculated, such as peak concentration (Cmax), clearance rate (CL), half-life (T1/2), volume of distribution at steady state (Vdss), area under drug-time curve (AUC0-last), bioavailability (F).

[4] = system: p-ERK in DLD-1 cells; test: p-ERK inhibitory activity test in DLD-1 cells (HTRF Phospho-ERK1/2 kit); assay type: cell-based; conditions: Homo sapiens, 1 hour incubation
Experimental: DLD-1 cells were purchased from Nanjing Cobioer; 1640 medium was purchased from Biological Industries; fetal bovine serum was purchased from Biosera; Advanced Phospho-ERK1/2 (THR202/TYR204) KIT was purchased from Cisbio.
DLD-1 cells were seeded in a transparent 96-well cell culture plate, with 80 μL of cell suspension per well and 8000 DLD-1 cells per well. The cell plate was incubated in a carbon dioxide incubator at 37° C. overnight; • the test compound was diluted to 2 mM with 100% DMSO as the first concentration, and then 5-fold diluted to the 8th concentration with a pipette, that is, diluted from 2 mM to 0.026 μM. 2 μL of compound was added to 78 μL of cell starvation medium. After mixing well, 20 μL of compound solution was taken and added to the corresponding cell plate wells, and the cell plate was put back to the carbon dioxide incubator to continue to incubate for 1 hour; at this time, the concentration of the compound was from 10 μM to 0.128 nM, and the concentration of DMSO was 0.5%; • after the incubation was completed, the cell supernatant was discarded, and 50 μL of cell lysate was added to each well, and incubated at room temperature for 30 minutes with shaking; • Phospho-ERK1/2 Eu Cryptate antibody and Phospho-ERK1/2 d2 antibody were 20-fold diluted using Detection buffer; • 16 μL of cell lysate supernatant per well was put into a new 384 white microplate, then 2 μL of Phospho-ERK1/2 Eu Cryptate antibody diluent and 2 μL of Phospho-ERK1/2 d2 antibody diluent were added thereto and incubated at room temperature for 4 hours; • after the incubation was completed, a multimode microplate reader was used to read HTRF excitation: 320 nm, emission: 615 nm, 665 nm.
Using the equation (Sample−Min)/(Max−Min)*100% to convert the raw data into inhibition rate, the IC50 value might be obtained by curve fitting with four parameters (obtained by “log (inhibitor) vs. response—Variable slope” mode in GraphPad Prism). • Max well: Positive control well reading is 1× lysate • Min well: Negative control well reading is 0.5% DMSO cell well cell lysate

Sequence of binding of KRAS(G12C) to SOS1 (Q07889 564-1049, stated change not applied): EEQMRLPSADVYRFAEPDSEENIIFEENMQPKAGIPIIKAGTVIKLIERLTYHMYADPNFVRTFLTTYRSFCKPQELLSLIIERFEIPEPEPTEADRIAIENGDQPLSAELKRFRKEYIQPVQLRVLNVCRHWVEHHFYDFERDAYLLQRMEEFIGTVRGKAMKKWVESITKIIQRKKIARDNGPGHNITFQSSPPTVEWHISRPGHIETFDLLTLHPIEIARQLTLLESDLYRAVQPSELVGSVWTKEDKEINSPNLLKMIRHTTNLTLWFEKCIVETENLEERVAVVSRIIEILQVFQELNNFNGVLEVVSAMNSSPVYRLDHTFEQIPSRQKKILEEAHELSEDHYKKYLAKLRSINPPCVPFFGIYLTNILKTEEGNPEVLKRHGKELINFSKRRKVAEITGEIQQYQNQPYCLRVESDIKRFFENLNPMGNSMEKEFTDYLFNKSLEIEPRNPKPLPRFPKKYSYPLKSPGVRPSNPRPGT

Compound	Mean tumor volume ± SEM (day 22) [1]	TGI ([1]; day 22)	IC50 [2]	Cmax ([3]; IV 1 mg/kg and oral 2 mg/kg study, read-out: Peak concentration Cmax)	bioavailability ([3]; IV 1 mg/kg, PO 2 mg/kg, read-out: Bioavailability F)	clearance ([3]; IV 1 mg/kg, read-out: Clearance rate CL)	half-life ([3]; IV 1 mg/kg, read-out: Half life T1/2 (IV) (converted))	Vd ([3]; IV 1 mg/kg, read-out: Volume of distribution at steady state Vdss)	AUC(0-t) ([3]; PO 2 mg/kg, read-out: Area under drug-time curve AUC0-last PO)	IC50 [4]
C=CC(=O)N1CCN(c2nc(=O)n(-c3c(C)ccnc3C(C)C)c3nc(-c4c(O)cccc4F)c(F)cc23)[C@@H](C)C1 (atropisomer, axis not shown) [AMG-510]	819 ± 407 mm^3	59.4%								
COc1cc2nc(C)nc(N[C@H](C)c3cccc(C(F)(F)C(C)(C)O)c3F)c2cc1OC(=O)N1CCN(C)CC1C (stereo partly shown) [Hydrochloride of compound 14]			40.4 nM	92.3 nM	33.9%	29.2 mL/min/kg	2.96 h	4.95 L/kg	0.606 µM·h	78.9 nM

Reference: patent US20240208945A1, “6-CARBAMATE SUBSTITUTED HETEROARYL RING DERIVATIVES” (MEDSHINE DISCOVERY INC., priority 2021, published 2024)
